pIC50: −log10 of the molar value.
molecular target: T1, stearoyl-CoA desaturase (SCD) (Rattus norvegicus, UniProt P07308); test: SCD assay, rat liver microsomes with [3H]stearoyl CoA (adapted from Talamo and Bloch); assay type: biochemical; details: second table, same SCD assay
T1 construct: from tissue; host or cells: liver microsomes of male Sprague Dawley rats, with SCD induced by a carbohydrate-rich diet
T1 sequence (P07308 1-358): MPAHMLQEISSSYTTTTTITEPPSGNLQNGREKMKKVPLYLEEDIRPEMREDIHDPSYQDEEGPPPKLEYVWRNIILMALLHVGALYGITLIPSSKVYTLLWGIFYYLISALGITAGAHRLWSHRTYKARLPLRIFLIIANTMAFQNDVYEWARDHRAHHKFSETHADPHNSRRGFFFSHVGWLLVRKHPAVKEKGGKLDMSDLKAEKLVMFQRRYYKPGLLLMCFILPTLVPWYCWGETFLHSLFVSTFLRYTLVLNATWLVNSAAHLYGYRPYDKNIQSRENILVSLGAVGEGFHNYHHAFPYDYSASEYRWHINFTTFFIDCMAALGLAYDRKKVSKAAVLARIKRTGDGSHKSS
From the text: The identification of compounds of the invention as SCD inhibitors was readily accomplished using the SCD enzyme and microsomal assay procedure described in Talamo and Bloch (1969) Analytical Biochemistry 29:300-304.
The rat liver microsomes were collected according to the procedure described in Ozols (1990) Methods Enzm, 182:225.
Male Spraque Dawley Rats were placed on regimented fasting protocol for one week to stimulate SCD enzymatic activity. 48-hour periods were alternated between feeding and fasting to induce and down-regulate SCD activity with SCD activity being induced via carbohydrate rich diet prior to liver perfusion and collection.
The rats were anesthetized with Isoflurane inhalation anesthetic, the liver perfused with cold phosphate buffered saline (PBS), weighed, and chilled in cold homogenization buffer (250 mM sucrose, 10 mM Tris, 1 mM EDTA, pH 7.6.
The livers were finely minced and placed in homogenization tube. 40 mL of homogenization buffer was added to the homogenization tube and the liver homogenized and centrifuged in a pre-chilled SLA-600 TC at 800G rotor for 10 min at 4° C.
Following centrifugation, the supernatant was collected and the pellet removed and discarded. This supernatant was then centrifuged at 10,000G for 35 minutes. Following centrifugation, the supernatant was collected and the pellet discarded. The supernatant was further centrifuged in a pre-chilled 45-Ti rotor at 130,000 G (41,000 RPM) for 90 minutes at 4° C.
The supernatant was then aspirated off and the collected microsomal pellet washed in 25 mL of Glycerol PBS (1×PBS 7.4, 20% Glycerol) and resuspended in 4-5 volumes of Glycerol PBS.
The protein concentration of the microsomal preparation was determined by BCA assay (Pierce) and the microsomes were aliquoted and stored at −80° C.
Biobeads were ground to a smaller size in a mortar and pestle and filtered through 300 μM mesh and then resuspended in 3.6% TCA.
SCD was determined in the desaturase assay buffer. This assay buffer contained 0.1 M Tris buffer, pH 7.2, 2 mM NADH, 4.8 mM ATP, 0.5 mM CoA, 4.8 mM MgCl2, and 0.1% BSA.
1 μl of each compound of Formula I was added to an assay plate by a low volume (0.5-10 μL) multichannel pipette. A DMSO control was also prepared. The microsomes were quickly thawed and added to assay buffer so that a concentration of 1-0.1 mg/ml was achieved (0.5-0.05 mg/ml assay final). 50 μl of the microsome suspension in assay buffer was then added into each well in the compound assay plate, the plate was covered, and the microsomes preincubated with the compounds for 30-60 minutes on the orbital shaker, 50-75 rpm, at room temperature.
After preincubation, the reaction was initiated by the addition of 50 μl of substrate solution (20 μM Stearoyl CoA, [3H]Stearoyl CoA, 74nCi) to the preincubated microsomes/compound suspensions in MilliQ (Millipore) H2O. The reaction mixtures were then incubated for 45 minutes on the orbital shaker at 50-75 rpm at room temperature.
The reaction was terminated by the addition of 10 μl of 21% trichloroacetic acid (TCA) to the reaction mixture followed incubation on the orbital shaker for 30 minutes at 50-75 rpm at room temperature followed by centrifugation for 5 minutes at 3700 rpm.
50 μl of a 6% Bio-Bead suspension in H2O was added to the reaction mixture and the assay plate was sealed. The Bio-Bead mixture was incubated on the orbital shaker for 1 to 24 hours, 100-150 rpm at room temperature, and then the mixture was centrifuged at 2000g for 5 minutes to pellet the Bio-Beads.
25 μl of the supernatant was harvested from each well and transferred to a detection plate. 100 μl of OptiPhase SuperMix scinitillation cocktail (containing sufficient NaOH to neutralize the TCA) was added and the solutions mixed by vigorous shaking (300-400 rpm) for 5 minutes at room temperature.

Compared with “3-(2-(4-methoxyphenyl)-3-oxo-6-(3-(trifluoromethyl)benzylamino)pyrido[2,3-b]pyrazin-4(3H)-yl)propanamide [compound 6]”, CC(=O)NCCn1c(=O)c(-c2ccc(F)cc2)nc2ccc(NCc3cccc(C(F)(F)F)c3)nc21 [compound 28, N-(2-(2-(4-fluorophenyl)-3-oxo-6-(3-(trifluoromethyl)benzylamino)pyrido[2,3-b]pyrazin-4(3H)-yl)ethyl)acetamide] is 1.05 log units lower in pIC50: 7.46 for the first, 6.41 for the second.

Compared with COc1ccc(-c2nc3cc(NCc4ccc(Cl)c(Cl)c4)cnc3n(CCNC(C)=O)c2=O)cc1 [compound 42, N-(2-(7-(3,4-dichlorobenzylamino)-2-(4-methoxyphenyl)-3-oxopyrido[2,3-b]pyrazin-4(3H)-yl)ethyl)acetamide], “N-(2-(3-(4-methoxyphenyl)-7-(3-methylbenzylamino)-2-oxoquinoxalin-1(2H)-yl)ethyl)acetamide [compound 56]” is 2.08 log units higher in pIC50: 5.66 for the first, 7.74 for the second.

First: COc1ccc(-c2nc3cc(NC(=O)OCc4ccccc4)ccc3n(CCNC(C)=O)c2=O)cc1 [compound 46, benzyl 1-(2-acetamidoethyl)-3-(4-methoxyphenyl)-2-oxo-1,2-dihydroquinoxalin-6-ylcarbamate]
Second: N-(2-(3-oxo-6-(3-(trifluoromethyl)benzylamino)-2-(4-(trifluoromethyl)phenyl)pyrido[2,3-b]pyrazin-4(3H)-yl)ethyl)acetamide [compound 37]
The pIC50 of the first is 1.19 log units lower: 4.70 for the first, 5.89 for the second.

Compared with COc1ccc(-c2nc3ccc(NCc4ccc(Cl)c(Cl)c4)nc3n(CCNC(=O)COC(C)=O)c2=O)cc1 [compound 33, 2-(2-(6-(3,4-dichlorobenzylamino)-2-(4-methoxyphenyl)-3-oxopyrido[2,3-b]pyrazin-4(3H)-yl)ethylamino)-2-oxoethyl acetate], CNC(=O)CCn1c(=O)c(-c2ccc(OC)cc2)nc2ccc(NCc3cccc(C(F)(F)F)c3)nc21 [compound 19, 3-(2-(4-methoxyphenyl)-3-oxo-6-(3-(trifluoromethyl)benzylamino)pyrido[2,3-b]pyrazin-4(3H)-yl)-N-methylpropanamide] is 0.48 log units lower in pIC50: 6.92 for the first, 6.44 for the second. The first is the more potent here.

First: COc1ccc(-c2nc3ccc(NCc4ccc(Cl)c(Cl)c4)nc3n(CCCC(N)=O)c2=O)cc1 [compound 11, 4-(6-(3,4-dichlorobenzylamino)-2-(4-methoxyphenyl)-3-oxopyrido[2,3-b]pyrazin-4(3H)-yl)butanamide]
Second: benzyl 1-(2-acetamidoethyl)-3-(3,4-dichlorophenyl)-2-oxo-1,2-dihydroquinoxalin-6-ylcarbamate [compound 47]
The pIC50 of the first is 1.18 log units higher: 6.82 for the first, 5.64 for the second. The first is the more potent here.

Going from “(R)-3-(2-(4-methoxyphenyl)-3-oxo-6-(3-(trifluoromethyl)benzylamino)pyrido[2,3-b]pyrazin-4(3H)-yl)butanamide [compound 22]” to COc1ccc(-c2nc3ccc(NCc4cc(C(F)(F)F)ccc4F)nc3n(CCNC(C)=O)c2=O)cc1 [compound 21, N-(2-(6-(2-fluoro-5-(trifluoromethyl)benzylamino)-2-(4-methoxyphenyl)-3-oxopyrido[2,3-b]pyrazin-4(3H)-yl)ethyl)acetamide], the pIC50 falls from 7.17 to 5.82 (1.35 log units).

Going from “(±)-2,3-dihydroxy-N-(2-(3-methyl-2-oxo-7-(3-(trifluoromethyl)benzylamino)-quinoxalin-1(2H)-yl)ethyl)-propanamide [compound 59]” to COc1ccc(-c2nc3ccc(NCCc4ccc(Cl)cc4)cc3n(CCNC(C)=O)c2=O)cc1 [compound 58, N-(2-(7-(4-chlorophenethylamino)-3-(4-methoxyphenyl)-2-oxoquinoxalin-1(2H)-yl)ethyl)acetamide], the pIC50 rises from 6.44 to 7.09 (0.65 log units). The second is the more potent here.

Going from COc1ccc(-c2nc3ccc(NCc4cccc(C(F)(F)F)c4)nc3n(NC(=O)COC(C)=O)c2=O)cc1 [compound 45, 2-(2-(4-methoxyphenyl)-3-oxo-6-(3-(trifluoromethyl)benzylamino)pyrido[2,3-b]pyrazin-4(3H)-ylamino)-2-oxoethyl acetate] to “3-(2-(4-ethylphenyl)-3-oxo-6-(3-(trifluoromethyl)benzylamino)pyrido[2,3-b]pyrazin-4(3H)-yl)propanamide [compound 29]”, the pIC50 rises from 5.17 to 6.82 (1.65 log units).

Compared with CC(=O)NCCn1c(=O)cnc2ccc(NCc3ccc(Cl)c(Cl)c3)nc21 [compound 14, N-(2-(6-(3,4-dichlorobenzylamino)-3-oxopyrido[2,3-b]pyrazin-4(3H)-yl)ethyl)acetamide], CCCc1ccc(-c2nc3ccc(NCc4cccc(C(F)(F)F)c4)nc3n(CCNC(C)=O)c2=O)cc1 [compound 24, N-(2-(3-oxo-2-(4-propylphenyl)-6-(3-(trifluoromethyl)benzylamino)pyrido[2,3-b]pyrazin-4(3H)-yl)ethyl)acetamide] is 0.71 log units higher in pIC50: 6.29 for the first, 7.00 for the second. The second is the more potent here.

Going from COc1ccc(-c2nc3ccc(NCc4ccc(Cl)c(C(F)(F)F)c4)cc3n(CCNC(C)=O)c2=O)cc1 [compound 62, N-(2-(7-(4-chloro-3-(trifluoromethyl)benzylamino)-3-(4-methoxyphenyl)-2-oxoquinoxalin-1(2H)-yl)ethyl)acetamide;] to “3-(2-(4-(2-methoxyethoxy)phenyl)-3-oxo-6-(3-(trifluoromethyl)benzylamino)pyrido[2,3-b]pyrazin-4(3H)-yl)propanamide [compound 30]”, the pIC50 falls from 8.22 to 6.72 (1.50 log units). The first is the more potent here.

Cc1nc2ccc(NCc3cccc(C(F)(F)F)c3)nc2n(CCCC(N)=O)c1=O [compound 36, 4-(2-methyl-3-oxo-6-(3-(trifluoromethyl)benzylamino)pyrido[2,3-b]pyrazin-4(3H)-yl)butanamide] and COc1ccc(-c2nc3ccc(NCc4ccc(Cl)c(Cl)c4)nc3n(CCNC(=O)CNC(C)=O)c2=O)cc1 [compound 41, 2-acetamido-N-(2-(6-(3,4-dichlorobenzylamino)-2-(4-methoxyphenyl)-3-oxopyrido[2,3-b]pyrazin-4(3H)-yl)ethyl)acetamide] are within 0.2 log units of each other in pIC50: 5.80 for the first, 5.96 for the second.

Going from Cc1nc2ccc(NCc3cccc(C(F)(F)F)c3)cc2n(CCNC(N)=O)c1=O [compound 53, 1-(2-(3-methyl-2-oxo-7-(3-(trifluoromethyl)benzylamino)quinoxalin-1(2H)-yl)ethyl)urea] to COc1ccc(-c2nc3ccc(NCc4cccc(C)c4)nc3n(CCNC(C)=O)c2=O)cc1 [compound 18, N-(2-(2-(4-methoxyphenyl)-6-(3-methylbenzylamino)-3-oxopyrido[2,3-b]pyrazin-4(3H)-yl)ethyl)acetamide], the pIC50 falls from 7.82 to 6.42 (1.40 log units).

Going from COc1ccc(-c2nc3ccc(NCc4cccc(C(F)(F)F)n4)nc3n(CCNC(C)=O)c2=O)cc1 [compound 3, N-(2-(2-(4-methoxyphenyl)-3-oxo-6-((6-(trifluoromethyl)pyridin-2-yl)methylamino)pyrido[2,3-b]pyrazin-4(3H)-yl)ethyl)acetamide] to Cc1nc2ccc(NCc3cccc(C(F)(F)F)c3)cc2n(CCNC(=O)CCO)c1=O [compound 49, 3-hydroxy-N-(2-(3-methyl-2-oxo-7-(3-(trifluoromethyl)benzylamino)quinoxalin-1(2H)-yl)ethyl)propanamide], the pIC50 rises from 5.00 to 5.96 (0.96 log units).

Work on “3-(6-(3,4-dichlorobenzylamino)-2-(4-methoxyphenyl)-3-oxopyrido[2,3-b]pyrazin-4(3H)-yl)-N-methylpropanamide [compound 12]” yielded a pIC50 of 7.02.
